Read-outs that look alike come from different tables or passages of the source.

Consider three compounds from US20230027219A1, “Skin Care Compositions and Methods of Use Thereof” (Unigen, Inc., priority 2013, published 2023).

The test system of assay [1] is 3T3-L1 cells. The assay can be described thus: Lipid accumulation assay in adipocytes (Oil red O staining). The class given is cell-based, Mouse. The conditions noted are these: for inhibition at 0.005 µg/mL / inhibition at 0.01 µg/mL / inhibition at 0.05 µg/mL / inhibition at 0.1 µg/mL / inhibition at 0.5 µg/mL: Mus musculus, read-out: Inhibition (%) of lipid accumulation; for effect on lipid accumulation, in words: over the doses tested, 3T3-L1, Oil red O.
Protocol: Mouse embryo fibroblast 3T3-L1 cells (purchased from American Type Culture Collection) were cultured in Dulbecco's modified Eagle's medium (DMEM) (GIBCO) containing 10% bovine calf serum until confluent. Two days post-confluence (D0), the cells were stimulated to differentiate into an adipocyte-like phenotype by adding DMEM containing 10% fetal bovine serum (FBS), 5 μg/ml insulin, 0.5 mM 3-isobutyl-1-methylxanthine (IBMX) and 1 μM dexamethasone for two days (D2). Cells were then maintained in 10% FBS/DMEM medium with 5 μg/ml insulin for another two days (D4), followed by culturing with 10% FBS/DMEM medium for four days (D8). Test samples at various concentrations were added to the cells from Day 0 to Day 8 of adipogenesis, during which the medium was exchanged every 2 days with fresh medium containing the test sample. On Day 8, lipid droplets in cells were stained with Oil red O (ORO) and signal measured at 510 nm.
Briefly, three concentrations of Annona AS-EE3 (100% EtOH) and AS-EE4 (70% EtOH) extracts (0.1, 0.5 and 1 μg/ml) and positive control TNF-α(10 ng/mL) were used to treat 3T3-L1 cells during the differentiation period (from Day 0 to Day 8 of adipogenesis). Cell culture medium containing extracts was changed every 2 days and ORO staining was used to detect lipid droplet accumulation in cells.
Three concentrations of the Annona hexane extracts (0.05, 0.1 and 0.5 μg/ml) were used to treat 3T3-L1 cells during the differentiation period (from Day 0 to Day 8 of adipogenesis), then stained for lipid accumulation on Day 8.
Similar to the previous extracts, each EtOAc extract was tested at three doses of 0.05 μg/ml, 0.1 μg/ml and 0.5 μg/ml.
Similar to the previous extracts, each of the CO2 extracts were tested at the following six doses of 0.0625 μg/ml, 0.125 μg/ml, 0.25 μg/ml, 0.35 μg/ml, 0.5 μg/ml, and 1 μg/ml.

In assay [2] the test system is human subcutaneous preadipocytes. The assay is described as follows: Differentiation assay in human subcutaneous adipocytes (glycerol liberated from triglyceride). The class given is cell-based. The method, then:
The inhibition of lipid accumulation and differentiation assays examined the ability of compounds to inhibit the differentiation of human subcutaneous preadipocytes into adipocytes. Cells were grown to confluency such that all cells were synchronized and then differentiated. Cryopreserved preadipocytes were passaged with preadipocyte medium (PM-1). Cells were fed every other day with PM-1 until confluent. To induce differentiation, PM-1 medium was replaced with differentiation medium (DM-2) including insulin, dexamethasone, isobutyl methylxanthine, PPAR-γ agonist, TNF-α and test compounds at day two. After 7 days, the medium was changed to Adipocyte medium without the test compounds. On day 16 of the assay, cytotoxicity and lipid accumulation were measured. Medium was removed, leaving 50 μl in each well. 10 μl Cell Titer Blue reagent was added to each well. Cells were incubated at 37° C. for 2 hours. […] Fluorescence was measured at excitation 560 nm/emission 590 nm. […] The optical density was read at 540 nm after 15 minutes. […]
The lipid accumulation assay of Example 28 was carried out with Annona squamosa extracts. […] After 2 weeks of treatment, cells were washed with PBS, lysed and triglyceride measured by total TG assay kit (Zen-bio). The reagents contain microbial lipase and the amount of glycerol liberated from triglyceride was measured. […]

The subject of assay [3] is 3T3-L1 pre-adipocytes. The assay is described as follows: Intracellular triglyceride (TG) content assay. Format: cell-based, Mouse. The note with it: 10 ng/ml; 3T3-L1, 8 days. The method, then: […] The cells were washed with PBS, scraped with homogenizing solutions. The residual cell lysate was centrifuged at 3000 g for 5 min to remove fat layers. The supernatants were assayed. The triglyceride levels were measured by using a commercial kit according to the manufacturer's instructions (#10010303, Cayman Chem., USA). As adipocytes differentiate, their intracellular levels of triglyceride increase continuously.

For the compound `CCCCCCC(O)CCCC(O)C1CCC(C2CCC(C(O)CCCCCCCCCCCCC3=CC(C)OC3=O)O2)O1` (stereo not drawn) [SA1, Squamocin], in assay [1] (3T3-L1, 0 h), the inhibition at 0.005 µg/mL was found to be 10.7 ± 10.9%, the inhibition at 0.01 µg/mL was found to be 37.8 ± 4.4%, the inhibition at 0.05 µg/mL worked out at 72.3 ± 3.1% and the inhibition at 0.1 µg/mL worked out at 71.6 ± 1.9%. Moreover, the inhibition at 0.5 µg/mL in assay [1] (3T3-L1, 0 h) amounted to 66.7 ± 4.7%. Besides, in assay [1], the “effect on lipid accumulation, in words” value was “high efficacy in a dose dependent manner”.
Turning to `C=C1C[C@@]23CC[C@H]4[C@@](C)(CCC[C@@]4(C)C(=O)O)[C@@H]2CC[C@@H]1C3` [SA2, kaurenoic acid], in assay [1] (0 h, 0.005 μg/ml, 3T3-L1, treated Day 0-8, Oil red O), the inhibition at 0.005 µg/mL turned out to be 2 ± 21.9%. Besides, the inhibition at 0.01 µg/mL in assay [1] (0 h, 0.01 μg/ml, 3T3-L1, treated Day 0-8, Oil red O) was determined as 0%. Further, the inhibition at 0.05 µg/mL in assay [1] (0 h, 0.05 μg/ml, 3T3-L1, treated Day 0-8, Oil red O) worked out at 9.8 ± 13.6%. The inhibition at 0.1 µg/mL in assay [1] (0 h, 0.1 μg/ml, 3T3-L1, treated Day 0-8, Oil red O) was determined as 12.6 ± 11.7%. The inhibition at 0.5 µg/mL in assay [1] (0 h, 0.5 μg/ml, 3T3-L1, treated Day 0-8, Oil red O) was determined as 7.8 ± 17.1%. Besides, the “effect on lipid accumulation, in words” value in assay [1] was “weaker effect”.
Turning to TNF-α [reference compound], the “Concentration of Glycerol” value in assay [2] (0.01 μg/ml, control 208.28) was 4.40 µM; in assay [2] (TNF-α 0.01 μg/mL, control 208.28 (Table 32)) it was 4.40. Moreover, the “Inhibition (%) of intracellular triglyceride level” value in assay [3] is on record as 55.1%.
